This note sets out measurements from patent publication US20050196492A1, “Food preservative method and system using vanillin and constituent having isothiocynate compound” (priority 2004, published 2005).

The test system of experiment [1] is Aspergillus niger. As to the kind of experiment: Antimicrobial properties of VOM (Wasaouro vapor) alone in MRE package, growth/no growth. The format is cell-based. To be noted: AIT by gas chromatography at time zero, 25° C., seven days. How it is done:
(§1) Similarly, the antimicrobial properties of VOM (without vanillin) were evaluated against the four organisms shown in Table I. In order to evaluate the antimicrobial properties of VOM against each of these foregoing organisms, the modeling system employed several MRE packages. Each MRE package contained two Petri dishes. One Petri dish, 100 mm×15 mm, contained a medium and a selected organism. […] The cellulose filter pad for each 60 mm×15 mm Petri dish received a measured quantity of Wasaouro®. A stock solution of Wasaouro® powder was made and volumes of 100, 200, 400, 600, 800 and 1000 μl were added respectively to the filter pads of the 60 mm×15 mm Petri dishes for each group. […] The amount of the volatile active component of Wasaouro®, allyl isothiocyanate, was determined using gas chromatography. Each Petri dish in the first group was inoculated with Penicillium notatum, inoculum 10^5 spores/ml. Each Petri dish in the first group was then uncovered and placed in its own MRE impermeable laminated package. Similarly, each Petri dish in the second group of Petri dishes was inoculated with Rhizopus stolonifer, inoculum 10^5 spores/ml. Each Petri dish in the second group was then uncovered and then placed in its own MRE impermeable laminated package. In a similar manner, each Petri dish in the third group of Petri dishes was inoculated with Aspergillus niger, inoculum 10^5 spores/ml. Each Petri dish in the third group was then uncovered and then placed in its own MRE impermeable laminated package. Similarly, each Petri dish in the fourth group of Petri dishes was inoculated with Saccharomycopsis fibuligera, inoculum 10^5 spores/ml. Each Petri dish in the fourth group was then uncovered and then placed in its own MRE impermeable laminated package. All MRE packages (for all groups of Petri dishes) were then incubated at 25° C. for seven days. The determination of effectiveness of VOM as an antimicrobial agent was based on a growth or no growth basis. Petri dishes with no growth were left out for seven days after removal from the MRE package to ensure that there was no additional growth. For each experiment, a set of control MRE packages were made with the various concentrations of Wasaouro®. These control packages were used to extrapolate the relative amounts of allyl isothiocyanate in the experimental MRE packages at time zero.

Another experiment relates to Penicillium notatum. The experiment is described as above. The experiment is classed as cell-based. To be noted: AIT by gas chromatography at time zero, 25° C., seven days. How it is done:
as §1

The next experiment deals with Rhizopus stolonifer. The description is as above. The experiment is classed as cell-based. The method, then: as §1
The test system of experiment [2] is Saccharomycopsis fibuligera. The experiment is described as above. As to conditions: AIT by gas chromatography at time zero, 25° C., seven days. The format is cell-based. The method, then: as §1
The test system of experiment [3] is Aspergillus niger. The experiment can be described thus: Combination of vanillin and VOM (AIT) in MRE package, growth grid. The format is cell-based. To be noted: for growth of Aspergillus niger: Vanillin 0 ppm. How it is done: (§2) Four bread spoilage organisms were used in determining the inhibition properties of vanillin and VOM: (1) Penicillium notatum, (2) Rhizopus stolonifer, (3) Aspergillus niger and (4) Saccharomycopsis fibuligera. For purposes of this analysis, Wasaouro® was used as the source of VOM. The antimicrobial tests were conducted in MRE air-impermeable laminated packages without bread. Petri dishes containing the appropriate growth medium were inoculated with a selected spoilage organism and then sealed with various concentrations of vanillin and/or Wasaouro®. The vanillin was incorporated directly into the growth medium while the Wasaouro® was kept separate from the organism within the MRE package. […] Wasaouro® was effective at low headspace concentrations (e.g. 17 μg/L (AIT)) with the exception of Rhizopus stolonifer which is resistant to AIT even at much higher concentrations.
Next, both antimicrobial agents were tested against two of the more resistant organisms, Rhizopus stolonifer and Aspergillus niger.

For a further experiment, the system named is Rhizopusus stolonifer. Described as above. As to conditions: Vanillin 0 ppm. The format is cell-based, Rhizopus stolonifer. The method, then: as §2
For experiment [4], the system named is Rhizopusus stolonifer and Aspergillus niger. The experiment can be described thus: Combination of vanillin and VOM (AIT) in MRE package, growth grid, both fungi. The experiment is classed as cell-based, Rhizopus stolonifer and Aspergillus niger. As to conditions: Vanillin 0 ppm. How it is done: as §2

For `C=CCN=C=S` [AIT, allyl isothiocyanate], the “Effective Amount Of Allyl Isothiocyanate” value was “˜17 ppm” with Aspergillus niger [1]; “˜17 ppm” in the experiment on Penicillium notatum; over 470 ppm in the experiment with Rhizopus stolonifer (Wasaouro vapor in MRE package, AIT by gas chromatography at time zero, 25° C., seven days); “˜8 ppm” in experiment [2]. Also, in the experiment with Rhizopus stolonifer (even at much higher concentrations than 17 μg/L), the “susceptibility of Rhizopus stolonifer to AIT” value is recorded as “resistant”. The “sensitivity of Aspergillus niger to AIT” value with Aspergillus niger [3] is reported as “very sensitive”. In addition, the “growth of Aspergillus niger” value with Aspergillus niger [3] (AIT 55 ug/L) is “Growth”; in the experiment with Aspergillus niger [3] (AIT 145 ug/L), “N/G”; in the experiment on Aspergillus niger [3] (AIT 150 ug/L) it was “Growth”; in the experiment on Aspergillus niger [3] (AIT 420 ug/L) it was “N/G”; with Aspergillus niger [3] (AIT 465 ug/L), “N/G”; with Aspergillus niger [3] (AIT 905 ug/L), “N/G”. The “growth of Rhizopusus stolonifer” value in the experiment on Rhizopusus stolonifer (AIT 55 ug/L), in the experiment on Rhizopusus stolonifer (AIT 145 ug/L), with Rhizopusus stolonifer (AIT 150 ug/L), with Rhizopusus stolonifer (AIT 420 ug/L), in the experiment with Rhizopusus stolonifer (AIT 465 ug/L) and in the experiment on Rhizopusus stolonifer (AIT 905 ug/L) was “Growth” throughout. The “growth of Rhizopusus stolonifer and Aspergillus niger” value in experiment [4] (AIT 55 ug/L), in experiment [4] (AIT 145 ug/L), in experiment [4] (AIT 150 ug/L), in experiment [4] (AIT 420 ug/L), in experiment [4] (AIT 465 ug/L) and in experiment [4] (AIT 905 ug/L) was “Growth” in each case.
